≈ marks a conversion by molar mass, not a printed value. Each block holds one molecule with its values, some of them ahead of it.
Tests used:
[1] = biological target: T1, glycosomal T. b. rhodesiense glyceraldehyde-3-phosphate dehydrogenase (TbrGAPDH) (Trypanosoma brucei brucei, UniProt P22512); assay: Thermal stability assay (CD spectroscopy) regarding TbrGAPDH; format: binding; conditions: for ∆Tm of TbrGAPDH: vs TbrGAPDH alone
T1 construct: made in house; host or cells: E. coli BL21(DE3), pET28a
Protocol: Thermal unfolding of TbrGAPDH and TbrAK was studied by circular dichroism (CD) spectroscopy at 220 nm within the temperature range of 20–90°C using a heating rate of 40°C/h. […]
All measurements were done in a 0.5 mm cell and contained 0.1 %
(§1) DMSO and 2.5 mM EDTA to prevent enzyme activity. Thermal stability was analyzed in presence of 500 µM substrate to record the maximum stability limit, whereas compounds 1 to 5 were used at a concentration of 50 µM, being the highest concentration achievable for compound 2, to allow comparison of all compounds at the same concentration. For evaluation of the CD spectra, the buffer spectrum was subtracted from the protein CD spectrum. All thermal unfolding curves were fitted to a two-state model that had been published recently. The mean of three independent experiments are reported. […]

[2] = biological target: T2, adenosine kinase of T. b. rhodesiense (TbrAK) (Trypanosoma brucei rhodesiense, UniProt Q584S0); assay: Thermal stability assay (CD spectroscopy) regarding TbrAK; format: binding; conditions: for Tm of TbrAK: 13 µM TbrAK
T2 sequence (Q584S0 1-345): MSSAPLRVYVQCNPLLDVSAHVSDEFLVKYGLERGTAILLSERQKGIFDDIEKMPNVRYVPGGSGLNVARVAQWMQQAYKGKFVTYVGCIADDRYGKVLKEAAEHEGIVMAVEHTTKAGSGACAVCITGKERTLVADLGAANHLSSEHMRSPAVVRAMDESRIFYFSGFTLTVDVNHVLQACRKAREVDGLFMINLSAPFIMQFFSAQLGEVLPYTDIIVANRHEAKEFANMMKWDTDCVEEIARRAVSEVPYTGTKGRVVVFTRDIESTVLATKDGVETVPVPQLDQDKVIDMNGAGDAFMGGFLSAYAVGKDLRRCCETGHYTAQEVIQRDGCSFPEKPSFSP
Protocol: Thermal unfolding of TbrGAPDH and TbrAK was studied by circular dichroism (CD) spectroscopy at 220 nm within the temperature range of 20–90°C using a heating rate of 40°C/h.
as §1, with “TbrAK in buffer E1 (20 mM Hepes, 150 mM NaCl, pH 7.0) was used at 0.5 mg/ml (final concentration 13 µM). All measurements were done in a 0.5 mm cell and contained 0.1 % DMSO” for “DMSO”

[3] = biological target: T2, adenosine kinase of T. b. rhodesiense (TbrAK); assay: Radiometric assay for kinetic study of TbrAK
T. b. rhodesiense = system: T. b. rhodesiense; set-up: method as in PMID 17949068; conditions: in vitro, blood stage parasite; read-out: IC50 against blood stage T.b. rhodesiense; cited from earlier work
[4] = Solubility limit in the assay mixture; format: physicochemical; conditions: HPLC activity assay mixture (buffer E1 with 1% DMSO), 37 °C, pH 7, aqueous buffer, kinetic from dmso stock, read-out: solubility limiting concentration
[5] = biological target: T2, adenosine kinase of T. b. rhodesiense (TbrAK); assay: HPLC activity assay for TbrAK; format: biochemical; conditions: for activity at 50 µM: 37°C, ADP/ATP ratio, read-out: TbrAK activity in presence of compound (% of activity without compound); for concentration dependence of the activation effect: range 1–750 µM, up to solubility limit
Protocol: TbrAK catalyzes the ATP-dependent phosphorylation of the 5′-hydroxyl moiety of adenosine to form AMP and ADP. The activity assay was based on HPLC separation of substrate and products (adenosine, AMP, ADP, and ATP). The mobile phase consisted of 35 mM KH2PO4, 6 mM tetrabutylammonium hydrogensulfate, (pH 7.0, adjusted with KOH), 125 mM EDTA, and 1% (v/v) acetonitrile. The separation was performed isocratically at a flow-rate of 1.5 ml/min and monitored at 254 nm. The standard reaction in 75 µl total volume containing 0.5 mM ATP, 0.5 mM adenosine, 0.5 mM MgCl2, 1% DMSO in buffer E1 (20 mM Hepes, 150 mM NaCl, pH 7.0) was started with the addition of 2 µg TbrAK (final concentration 0.7 µM) and incubated at 37°C for 10 min while shaking vigorously (600 rpm). […] All reactions were stopped by adding 75 µl mobile phase. 50 µl of the sample volume were injected for analysis and the resulting ADP/ATP ratios were calculated and used as a measure of activity. For comparative reasons the activity recorded in absence of compound was set to 100%. The mean of three independent measurements are reported.

[6] = set-up: method as in PMID 17949068; conditions: cited from earlier work
[7] = system: bloodstream-form T. b. brucei TbAK RNAi cells; assay: Drug sensitivity test (Alamar blue) on TbAK RNAi knock-down mutant; format: cell-based
Protocol: The construction of the T. b. brucei adenosine kinase gene knock-down mutant has been described recently. Expression of a stem-loop construct targeting TbAK was induced by addition of 10 µg/ml tetracycline to the medium. Down-regulation of TbAK expression was verified by Northern blotting. Parasites were cultivated and drug sensitivity was tested using the Alamar blue test. IC50 values were calculated by nonlinear fitting to the sigmoidal dose-response curve using Origin® software. The assays were performed in triplicates for at least four times.

[8] = substrate: Nc1ncnc2c1ncn2[C@@H]1O[C@H](CO)[C@@H](O)[C@H]1O; assay: purified protein, by the assay type; conditions: other: in absence of compound 1, 167 µM ATP; pH 7.0; 37.0 °C
[9] = 50 µM compound, 0.7 µM TbrAK, 10 min

T1 sequence (P22512 whole entry): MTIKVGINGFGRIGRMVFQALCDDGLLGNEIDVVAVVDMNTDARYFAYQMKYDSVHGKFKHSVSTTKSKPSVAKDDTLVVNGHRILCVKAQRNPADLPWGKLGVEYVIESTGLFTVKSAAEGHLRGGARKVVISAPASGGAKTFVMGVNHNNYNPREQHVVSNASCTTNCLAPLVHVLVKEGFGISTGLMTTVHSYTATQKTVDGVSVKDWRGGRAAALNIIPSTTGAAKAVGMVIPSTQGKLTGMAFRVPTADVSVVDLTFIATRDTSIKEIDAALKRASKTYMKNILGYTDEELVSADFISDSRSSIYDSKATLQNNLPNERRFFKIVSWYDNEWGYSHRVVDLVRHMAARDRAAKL

- Tm of TbrGAPDH ([1]; substrate at 500 µM): 50.0 ± 0.7 °C
- ∆Tm of TbrGAPDH ([1]; substrate at 500 µM): 2.4 °C
Molecule: O=CC(O)COP(=O)(O)O (racemic) [DL-GAP, DL-glyceraldehyde-3-phosphate, reference compound]

Molecule: Nc1ncnc2c1ncn2[C@@H]1O[C@H](COP(=O)(O)OP(=O)(O)OP(=O)(O)O)[C@@H](O)[C@H]1O [ATP, reference compound]
- Tm of TbrAK ([2]; substrate at 500 µM): 42.8±0.1 °C
- ΔTm of TbrAK ([2]; substrate at 500 µM, vs apo TbrAK): −0.3 °C

- Tm of TbrGAPDH ([1]; substrate at 500 µM): 55.6 ± 0.2 °C
- ∆Tm of TbrGAPDH ([1]; substrate at 500 µM): 8.0 °C
Molecule: NC(=O)c1ccc[n+]([C@@H]2O[C@H](COP(=O)([O-])OP(=O)(O)OC[C@H]3O[C@@H](n4cnc5c(N)ncnc54)[C@H](O)[C@@H]3O)[C@@H](O)[C@H]2O)c1 [NAD+, reference compound]

Molecule: Nc1ncnc2c1ncn2[C@@H]1O[C@H](CO)[C@@H](O)[C@H]1O [adenosine]
- ΔTm at 500 µM ([2]; read-out: ΔTm of TbrAK): 7.6 °C
- Tm of TbrAK ([2]; substrate at 500 µM): 50.7±0.2 °C
- Ki [3]: 6.1 ± 1.4 µM

Molecule: Nc1ccc(Oc2ccc(-c3cc(N4CCOCC4)[nH]n3)cc2)cc1 [compound 2, 4-[4-(5-morpholine-4-yl-1H-pyrazol-3-yl)-phenoxy]phenylamine]
- IC50 (T. b. rhodesiense): 17.7 µM
- Tm of TbrGAPDH ([1]; compound at 50 µM): 47.0 ± 0.4 °C
- Tm of TbrAK ([2]; compound at 50 µM): 45.9±0.4 °C
- ΔTm at 50 µM ([2]; read-out: ΔTm of TbrAK): 2.8 °C
- solubility [4]: ≤ 50 µM
- activity at 50 µM [5, 9]: 174 ± 5%
- fold induction at 50 µM ([5]; 10 min, pH 7, 50 µM compound, read-out: fold increase of TbrAK activity): 1.7
- concentration dependence of the activation effect [5]: concentration dependent

Molecule: Nc1ccc(-n2nc(-c3ccc(Oc4ccccc4)cc3)cc2N2CCOCC2)cc1 [compound 3, 4-[5-morpholine-4-yl-3-(4-phenoxyphenyl)-pyrazol-1-yl]phenylamine]
- IC50 (T. b. rhodesiense): 10.3 µM
- Tm of TbrGAPDH ([1]; compound at 50 µM): 45.5 ± 0.6 °C
- Tm of TbrAK ([2]; compound at 50 µM): 42.8±0.2 °C
- ΔTm at 50 µM ([2]; read-out: ΔTm of TbrAK): -0.3 °C
- activity at 50 µM [5, 9]: 110 ± 1%
- concentration dependence of the activation effect [5]: did not activate TbrAK

Molecule: c1ccc(Oc2ccc(-c3cc(N4CCNCC4)[nH]n3)cc2)cc1 [compound 4]
- IC50 (T. b. rhodesiense): 1.1 µM
- Tm of TbrGAPDH ([1]; compound at 50 µM): 47.0 ± 0.1 °C
- Tm of TbrAK ([2]; compound at 50 µM): 43.2±0.1 °C
- ΔTm at 50 µM ([2]; read-out: ΔTm of TbrAK): 0.1 °C
- solubility [4]: 750 µM (≈ 240 µg/mL)
- cytotoxicity / general toxicity [6]: increased general toxicity
- activity at 50 µM [5, 9]: 109 ± 1%
- EC50 ([5]; 0.5 mM ATP, 0.5 mM adenosine, 0.7 µM TbrAK, read-out: EC50 of TbrAK activation (HPLC assay)): > 750 µM
- fold increase of EC50 relative to compound 1 ([5]; HPLC assay): at least 20 fold
- concentration dependence of the activation effect [5]: concentration dependent

Molecule: c1ccc(Oc2ccc(-c3cc[nH]n3)cc2)cc1 [compound 5, 3-(4-phenoxyphenyl)-1H-pyrazole]
- IC50 difference between induced and non-induced TbAK RNAi cells [7]: did not exhibit any IC50 difference
- IC50 (T. b. rhodesiense): > 65 µM
- Tm of TbrGAPDH ([1]; compound at 50 µM): 46.7 ± 0.2 °C
- Tm of TbrAK ([2]; compound at 50 µM): 43.4±0.1 °C
- ΔTm at 50 µM ([2]; read-out: ΔTm of TbrAK): 0.3 °C
- IC50 ([6]; read-out: general toxicity IC50): > 136 µM
- activity at 50 µM [5, 9]: 102 ± 2%
- concentration dependence of the activation effect [5]: did not activate TbrAK

B1: adenosine kinase of T. b. rhodesiense (TbrAK) (Trypanosoma brucei brucei TREU927) (protein)
chain: T2 sequence (Q584S0 1-345)
- Km [8]: 0.99 ± 0.05 µM

— paper PMC2724708, “Adenosine Kinase of T. b. rhodesiense Identified as the Putative Target of 4-[5-(4-phenoxyphenyl)-2H-pyrazol-3-yl]morpholine Using Chemical Proteomics” (PLoS Neglected Tropical Diseases, 2009)
